From patent US12433865B2, “Compositions comprising PGI2-receptor agonists and processes for the preparation thereof” (Arena Pharmaceuticals, Inc., priority 2018, dated 2025)

Assay: Release (dissolution) profile of capsules, USP Apparatus 2 (paddle)
Format: physicochemical
Conditions: for Release rate (percentage of Compound 1 released over time): 0.04 mg capsule, Poloxamer 188:food grade GMS 50:50, T = 0 (pre-curing)
Excerpt: USP Apparatus 2 (Paddle Apparatus) is described, for example, in the United States Pharmacopeial Convention, Feb. 1, 2012, Chapter <711> (“Dissolution”), incorporated by reference herein in its entirety. See http://www.usp.org/sites/default/files/usp_pdf/EN/USPNF/revisions/m99470-gc_711.pdf. The assembly from Apparatus 1 is used, except that a paddle formed from a blade and a shaft is used as the stirring element. The shaft is positioned so that its axis is not more than 2 mm from the vertical axis of the vessel at any point and rotates smoothly without significant wobble that could affect the results. The vertical center line of the blade passes through the axis of the shaft so that the bottom of the blade is flush with the bottom of the shaft. A distance of 25±2 mm between the bottom of the blade and the inside bottom of the vessel is maintained during the test. The metallic or suitably inert, rigid blade and shaft comprise a single entity. A suitable two-part detachable design may be used provided the assembly remains firmly engaged during the test. The paddle blade and shaft may be coated with a suitable coating so as to make them inert. The dosage unit is allowed to sink to the bottom of the vessel before rotation of the blade is started. A small, loose piece of nonreactive material, such as not more than a few turns of wire helix, may be attached to dosage units that would otherwise float. Other validated sinker devices may be used.
Unless otherwise specified, the release profiles for capsules were measured using USP Apparatus 2 (paddle).
All release profiles disclosed in Tables 3c-3p were measured with USP Apparatus 2 (paddle) at 50 rpm in 500 mL of aqueous sodium phosphate at a concentration of 0.05 M (pH=6.8). The values in a given table relate to capsules obtained from the same batch. Values shown represent mean values over a number of dissolution tests (“n” in each table) in each case.

- Release rate (percentage of Compound 1 released over time) (480 min): 72.7%
- Release rate (percentage of Compound 1 released over time) (600 min): 79.8%
- Release rate (percentage of Compound 1 released over time) (720 min): 83.1%
- Release rate (percentage of Compound 1 released over time) (735 min): 84.6%
- change of release rate after storage (0.04 mg of Compound 1 in Gelucire 50/13, storage at 40° C. and 75% RH for two weeks (FIG. 5)): rapid increase
- release rate relative to immediate-release composition (0.5 mg Compound 1, Poloxamer 188:food grade GMS 70:30, 50:50 and 30:70 (FIGS. 8-10)): slower rate
- release rate after storage (0.5 mg Compound 1, Poloxamer 188:food grade GMS 70:30, 50:50 and 30:70, storage at 40° C. and 75% RH for about one month (FIGS. 8-10)): substantially the same
- mean value (n = 6) of % of Compound 1 released (Table 3c: size 4 capsule, 0.03 mg Compound 1, Poloxamer 188:food grade GMS 70:30, 20 min): 14.8%
- mean value (n = 6) of % of Compound 1 released (Table 3c: size 4 capsule, 0.03 mg Compound 1, Poloxamer 188:food grade GMS 70:30, 30 min): 36.1%
- mean value (n = 6) of % of Compound 1 released (Table 3c: size 4 capsule, 0.03 mg Compound 1, Poloxamer 188:food grade GMS 70:30, 45 min): 65.4%
- mean value (n = 6) of % of Compound 1 released (Table 3c: size 4 capsule, 0.03 mg Compound 1, Poloxamer 188:food grade GMS 70:30, 60 min): 83.8%
- mean value (n = 6) of % of Compound 1 released (Table 3c: size 4 capsule, 0.03 mg Compound 1, Poloxamer 188:food grade GMS 70:30, 90 min): 95.5%
- mean value (n = 6) of % of Compound 1 released (Table 3c: size 4 capsule, 0.03 mg Compound 1, Poloxamer 188:food grade GMS 70:30, 120 min): 98.4%
- mean value (n = 4) of % of Compound 1 released (Table 3e: size 4 capsule, 0.5 mg Compound 1, Poloxamer 188:food grade GMS 70:30, 30 min): 17.7%
- mean value (n = 4) of % of Compound 1 released (Table 3e: size 4 capsule, 0.5 mg Compound 1, Poloxamer 188:food grade GMS 70:30, 60 min): 56.9%
- mean value (n = 4) of % of Compound 1 released (Table 3e: size 4 capsule, 0.5 mg Compound 1, Poloxamer 188:food grade GMS 70:30, 120 min): 95.1%
- mean value (n = 4) of % of Compound 1 released (Table 3f: size 4 capsule, 0.5 mg Compound 1, Poloxamer 188:food grade GMS 70:30, 30 min): 19.3%
- mean value (n = 4) of % of Compound 1 released (Table 3f: size 4 capsule, 0.5 mg Compound 1, Poloxamer 188:food grade GMS 70:30, 60 min): 61.9%
- mean value (n = 4) of % of Compound 1 released (Table 3f: size 4 capsule, 0.5 mg Compound 1, Poloxamer 188:food grade GMS 70:30, 120 min): 98.1%
- mean value (n = 4) of % of Compound 1 released (Table 3g-1: Storage Time = 0, size 4 capsule, 0.5 mg Compound 1, Poloxamer 188:food grade GMS 70:30, 30 min): 33.0%
- mean value (n = 4) of % of Compound 1 released (Table 3g-1: Storage Time = 0, size 4 capsule, 0.5 mg Compound 1, Poloxamer 188:food grade GMS 70:30, 45 min): 64.2%
- mean value (n = 4) of % of Compound 1 released (Table 3g-1: Storage Time = 0, size 4 capsule, 0.5 mg Compound 1, Poloxamer 188:food grade GMS 70:30, 60 min): 86.0%
- mean value (n = 4) of % of Compound 1 released (Table 3g-2 (Storage Time = 2 weeks), first line, size 4 capsule, 0.5 mg Compound 1, Poloxamer 188:food grade GMS 70:30, 30 min): 33.0%
- mean value (n = 4) of % of Compound 1 released (Table 3g-2 (Storage Time = 2 weeks), first line, size 4 capsule, 0.5 mg Compound 1, Poloxamer 188:food grade GMS 70:30, 45 min): 64.2%
- mean value (n = 4) of % of Compound 1 released (Table 3g-2 (Storage Time = 2 weeks), first line, size 4 capsule, 0.5 mg Compound 1, Poloxamer 188:food grade GMS 70:30, 60 min): 86.0%
- mean value (n = 4) of % of Compound 1 released (Table 3g-2 (Storage Time = 2 weeks), second line, size 4 capsule, 0.5 mg Compound 1, Poloxamer 188:food grade GMS 70:30, 30 min): 34.8%
- mean value (n = 4) of % of Compound 1 released (Table 3g-2 (Storage Time = 2 weeks), second line, size 4 capsule, 0.5 mg Compound 1, Poloxamer 188:food grade GMS 70:30, 45 min): 67.9%
- mean value (n = 4) of % of Compound 1 released (Table 3g-2 (Storage Time = 2 weeks), second line, size 4 capsule, 0.5 mg Compound 1, Poloxamer 188:food grade GMS 70:30, 60 min): 89.4%
- mean value (n = 4) of % of Compound 1 released (Table 3i: size 4 capsule, 0.5 mg Compound 1, Poloxamer 188:food grade GMS 50:50, 30 min): 7.5%
- mean value (n = 4) of % of Compound 1 released (Table 3i: size 4 capsule, 0.5 mg Compound 1, Poloxamer 188:food grade GMS 50:50, 60 min): 21.1%
- mean value (n = 4) of % of Compound 1 released (Table 3i: size 4 capsule, 0.5 mg Compound 1, Poloxamer 188:food grade GMS 50:50, 120 min): 41.1%
- mean value (n = 4) of % of Compound 1 released (Table 3i: size 4 capsule, 0.5 mg Compound 1, Poloxamer 188:food grade GMS 50:50, 180 min): 58.9%
- mean value (n = 4) of % of Compound 1 released (Table 3i: size 4 capsule, 0.5 mg Compound 1, Poloxamer 188:food grade GMS 50:50, 240 min): 75.3%
- mean value (n = 4) of % of Compound 1 released (Table 3i: size 4 capsule, 0.5 mg Compound 1, Poloxamer 188:food grade GMS 50:50, 360 min): 94.3%
- mean value (n = 4) of % of Compound 1 released (Table 3i: size 4 capsule, 0.5 mg Compound 1, Poloxamer 188:food grade GMS 50:50, 480 min): 100.0%
- mean value (n = 4) of % of Compound 1 released (Table 3j: size 4 capsule, 0.5 mg Compound 1, Poloxamer 188:food grade GMS 50:50, 30 min): 7.8%
- mean value (n = 4) of % of Compound 1 released (Table 3j: size 4 capsule, 0.5 mg Compound 1, Poloxamer 188:food grade GMS 50:50, 60 min): 19.5%
- mean value (n = 4) of % of Compound 1 released (Table 3j: size 4 capsule, 0.5 mg Compound 1, Poloxamer 188:food grade GMS 50:50, 120 min): 38.6%
- mean value (n = 4) of % of Compound 1 released (Table 3j: size 4 capsule, 0.5 mg Compound 1, Poloxamer 188:food grade GMS 50:50, 180 min): 56.8%
- mean value (n = 4) of % of Compound 1 released (Table 3j: size 4 capsule, 0.5 mg Compound 1, Poloxamer 188:food grade GMS 50:50, 240 min): 72.9%
- mean value (n = 4) of % of Compound 1 released (Table 3j: size 4 capsule, 0.5 mg Compound 1, Poloxamer 188:food grade GMS 50:50, 360 min): 90.7%
- mean value (n = 4) of % of Compound 1 released (Table 3j: size 4 capsule, 0.5 mg Compound 1, Poloxamer 188:food grade GMS 50:50, 480 min): 97.4%
- mean value (n = 6) of % of Compound 1 released (Table 3k: size 4 capsule, 0.03 mg Compound 1, Poloxamer 188:food grade GMS 50:50, 30 min): 8.5%
- mean value (n = 6) of % of Compound 1 released (Table 3k: size 4 capsule, 0.03 mg Compound 1, Poloxamer 188:food grade GMS 50:50, 60 min): 18.0%
- mean value (n = 6) of % of Compound 1 released (Table 3k: size 4 capsule, 0.03 mg Compound 1, Poloxamer 188:food grade GMS 50:50, 120 min): 39.3%
- mean value (n = 6) of % of Compound 1 released (Table 3k: size 4 capsule, 0.03 mg Compound 1, Poloxamer 188:food grade GMS 50:50, 180 min): 58.6%
- mean value (n = 6) of % of Compound 1 released (Table 3k: size 4 capsule, 0.03 mg Compound 1, Poloxamer 188:food grade GMS 50:50, 240 min): 75.2%
SMILES: O=C(O)COC[C@H]1CC[C@H](COC(=O)N(c2ccccc2)c2ccc(Cl)cc2)CC1 [Compound 1, 2-(((1r,4r)-4-(((4-chlorophenyl)(phenyl)carbamoyloxy)methyl)cyclohexyl)methoxy)acetic acid]
